According to patent publication US20110237607A1, “SUBSTITUTED PURINYL-PYRAZOL DERIVATIVES AND THEIR USE AS POTASSIUM CHANNEL MODULATORS” (NEUROSEARCH A/S, priority 2008, published 2011):

Target: T1, hSK3 channels (Homo sapiens, UniProt Q9UGI6)
T1 construct: expressed in transfected cells; host or cells: HEK293
Experiment: Whole-cell patch-clamp recording of SK3 current in HEK293 cells expressing hSK3 channels
Type: cell-based
Description: The ionic current through small-conductance Ca^2+-activated K^+ channels (SK channels, subtype 3) is recorded using the whole-cell configuration of the patch-clamp technique in a classic patch-clamp set-up using HEK293 tissue culture cells expressing hSK3 channels as described in e.g. WO 2006/100212.
The SC100 value determined is defined as the Stimulating Concentration required for increasing the baseline current by 100%. The below SC100 values are an indication of the SK3 activating properties of the compounds of the invention.

SC100 (Stimulating Concentration required for increasing the baseline current by 100%) [µM]	Structure (SMILES)
0.04	Cc1cc(C)n(-c2nc(NC3Cc4ccccc4C3)c3ncn(C)c3n2)n1 [Compound 5.1, [2-(3,5-Dimethyl-pyrazol-1-yl)-9-methyl-9H-purin-6-yl]-indan-2-yl-amine]
0.10	Cc1ccn(-c2nc(NC3Cc4ccccc4C3)c3ncn(C)c3n2)n1 [Compound 5.2, Indan-2-yl-[9-methyl-2-(3-methyl-pyrazol-1-yl)-9H-purin-6-yl]-amine]
